Test results: patent US20210277020A1, “HETEROCYCLIC COMPOUNDS AS MONOACYLGLYCEROL LIPASE INHIBITORS” (Hoffmann-La Roche Inc., priority 2018, published 2021)

Molecular target: T1, MAGL (Homo sapiens, UniProt Q99685)
T1 sequence (Q99685 1-303): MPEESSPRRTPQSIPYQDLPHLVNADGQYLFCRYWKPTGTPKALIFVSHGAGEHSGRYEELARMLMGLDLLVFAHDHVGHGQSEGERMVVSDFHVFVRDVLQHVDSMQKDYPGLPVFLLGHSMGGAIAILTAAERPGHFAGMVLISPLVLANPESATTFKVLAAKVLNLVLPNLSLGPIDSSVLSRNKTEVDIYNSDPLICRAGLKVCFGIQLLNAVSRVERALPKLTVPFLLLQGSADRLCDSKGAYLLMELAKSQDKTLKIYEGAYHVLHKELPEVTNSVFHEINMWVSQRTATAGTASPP
Assay: 2-AG assay: MAGL inhibition followed by hydrolysis of 2-arachidonoylglycerol to arachidonic acid, mass spectrometry
Assay type: biochemical
Conditions: measured in 2-AG assay (footnote [a]); substrate 2-arachidonoylglycerol 8 μM, 30 min at RT
Description: Alternatively, compounds were profiled for MAGL inhibitory activity by determining the enzymatic activity by following the hydrolysis of the natural substrate, 2-arachidonoylglycerol, resulting in arachidonic acid, which can be followed by mass spectrometry. This assay is hereinafter abbreviated “2-AG assay”.
Detection by mass spectrometry in the present 2-AG assay has the advantage over known optical assays that the natural enzyme substrate, 2-arachidonoylglycerol, can be used instead of structurally unrelated compounds needed for optical readouts (such as 4-NPA). It thereby delivers more relevant data for activity determination, reduces false positives and generally adds to data quality. In addition, this assay reduces the analysis time from about 10 minutes per sample with standard methods to under 10 seconds per sample. This allows for using the present 2-AG assay in a method for high throughput screening of compounds for their MAGL inhibitory activity.
The 2-AG assay was carried out in 384 well assay plates (PP, Greiner Cat #784201) in a total volume of 20 μL. Compound dilutions were made in 100% DMSO (VWR Chemicals 23500.297) in a polypropylene plate in 3-fold dilution steps to give a final concentration range in the assay from 12.5 μM to […]. 0.25 μL compound dilutions (100% DMSO) were added to 9 μL MAGL in assay buffer (50 mM TRIS (GIBCO, 15567-027), 1 mM EDTA (Fluka, 03690-100 mL), 0.01% (v/v) Tween. After shaking, the plate was incubated for 15 min at RT. To start the reaction, 10 μL 2-arachidonoylglycerol in assay buffer was added. The final concentrations in the assay was […] and 8 μM 2-arachidonoylglyerol. After shaking and 30 min incubation at RT, the reaction was quenched by the addition of 40 μL of acetonitrile containing 4 μM of d8-arachidonic acid. The amount of arachidonic acid was traced by an online SPE system (Agilent Rapidfire) coupled to a triple quadrupole mass spectrometer (Agilent 6460). A C18 SPE cartridge (G9205A) was used in an acetonitrile/water liquid setup. The mass spectrometer was operated in negative electrospray mode following the mass transitions 303.1→259.1 for arachidonic acid and 311.1→267.0 for d8-arachidonic acid. The activity of the compounds was calculated based on the ratio of intensities [arachidonic acid/d8-arachidonic acid].
In a preferred embodiment, the method for determining the MAGL inhibitory activity of a test compound according to the invention, comprises: • (i) providing a solution of a test compound; • (ii) adding the solution of step (i) to a solution of MAGL; • (iii) shaking the mixture obtained from step (ii); • (iv) incubating the mixture obtained from step (iii); • (v) adding a solution of 2-arachidonoylglycerol; • (vi) incubating the mixture obtained from step (v); • (vii) adding a solution of d8-arachidonic acid; and • (viii) determining the ratio of intensities arachidonic acid/d8-arachidonic acid using a mass spectrometer.

| SMILES | IC50 [nM] |
| --- | --- |
| Cc1c(F)cccc1C#CC1CN(C(=O)N2CC[C@@H]3OCC(=O)N[C@@H]3C2)C1 [Example 168, (4aR,8aS)-6-[3-[2-(3-Fluoro-2-methylphenyl)ethynyl]azetidine-1-carbonyl]-4,4a,5,7,8,8a-hexahydropyrido[4,3-b][1,4]oxazin-3-one] | 6 |
| O=C1CO[C@H]2CCN(C(=O)N3CC(Sc4ccc(C(F)(F)F)cc4Cl)C3)C[C@H]2N1 [Example 143, (4aR,8aS)-6-[3-[2-Chloro-4-(trifluoromethyl)phenyl]sulfanylazetidine-1-carbonyl]-4,4a,5,7,8,8a-hexahydropyrido[4,3-b][1,4]oxazin-3-one] | 105 |
| O=C1CO[C@H]2CCN(C(=O)N3CC(C#Cc4ccccc4OC(F)F)C3)C[C@H]2N1 [Example 175, (4aR,8aS)-6-[3-[2-[2-(Difluoromethoxy)phenyl]ethynyl]azetidine-1-carbonyl]-4,4a,5,7,8,8a-hexahydropyrido[4,3-b][1,4]oxazin-3-one] | 33 |
| O=C1CO[C@H]2CCN(C(=O)N3CC(C#Cc4ccccc4C(F)F)C3)C[C@H]2N1 [Example 182, (4aR,8aS)-6-[3-[2-[2-(Difluoromethyl)phenyl]ethynyl]azetidine-1-carbonyl]-4,4a,5,7,8,8a-hexahydropyrido[4,3-b][1,4]oxazin-3-one] | 14 |
| O=C1CO[C@H]2CCN(C(=O)N3CC(O)(C#Cc4ccccc4Cl)C3)C[C@H]2N1 [Example 190, (4aR,8aS)-6-[3-[2-(2-Chlorophenyl)ethynyl]-3-hydroxyazetidine-1-carbonyl]-4,4a,5,7,8,8a-hexahydropyrido[4,3-b][1,4]oxazin-3-one] | 535 |
| O=C1CO[C@H]2CCN(C(=O)N3CCC(C#Cc4ccc(Cl)cc4Cl)CC3)C[C@H]2N1 [Example 131, (+)-(4aR,8aS)-6-[4-[2-(2,4-Dichlorophenyl)ethynyl]piperidine-1carbonyl]-4,4a,5,7,8,8a-hexahydropyrido[4,3-b][1,4]oxazin-3-one] | 22 |
| COc1ccccc1C#CC1CCN(C(=O)N2CC[C@@H]3OCC(=O)N[C@@H]3C2)CC1 [Example 193, (4aR,8aS)-6-(4-((2-Methoxyphenyl)ethynyl)piperidine-1carbonyl)hexahydro-2H-pyrido[4,3-b][1,4]oxazin-3(4H)-one] | 86 |
| O=C1CO[C@H]2CCN(C(=O)N3CC(CNC(c4ccc(C(F)(F)F)cc4)C(F)(F)F)C3)C[C@H]2N1 (stereo partly drawn) [Example 41, (4aR,8aS)-6-[3-[[[2,2,2-Trifluoro-1-[4-(trifluoromethyl)phenyl]ethyl]amino]methyl]azetidine-1-carbonyl]hexahydro-2H-pyrido[4,3-b][1,4]oxazin-3(4H)-one] | 24 |
| O=C1CO[C@H]2CCN(C(=O)N3CC(C#Cc4ccc(Cl)cc4Cl)C3)C[C@H]2N1 [Example 134, (+)-(4aR,8aS)-6-(3-((2,4-Dichlorophenyl)ethynyl)azetidine-1-carbonyl)hexahydro-2H-pyrido[4,3-b][1,4]oxazin-3(4H)-one] | 5 |
| O=C1CO[C@H]2CCN(C(=O)N3CC([S+]([O-])c4ccc(C(F)(F)F)cc4Cl)C3)C[C@H]2N1 (mixture of isomers) [Example 145, (4aR,8aS)-6-[3-[2-Chloro-4-(trifluoromethyl)phenyl]sulfinylazetidine-1-carbonyl]-4,4a,5,7,8,8a-hexahydropyrido[4,3-b][1,4]oxazin-3-one] | 5620 |
| O=C1CO[C@H]2CCN(C(=O)N3CCC(C#Cc4ncccc4Cl)CC3)C[C@H]2N1 [Example 127, (+)-(4aR,8aS)-6-[4-[2-(3-Chloropyridin-2-yl)ethynyl]piperidine-1-carbonyl]-4,4a,5,7,8,8a-hexahydropyrido[4,3-b][1,4]oxazin-3-one] | 308 |
| O=C1CO[C@H]2CCN(C(=O)N3CC(C[S+]([O-])c4ccc(C(F)(F)F)cc4Cl)C3)C[C@H]2N1 (mixture of isomers) [Example 153, (4aR,8aS)-6-[3-[[2-Chloro-4-(trifluoromethyl)phenyl]sulfinylmethyl]azetidine-1-carbonyl]-4,4a,5,7,8,8a-hexahydropyrido[4,3-b][1,4]oxazin-3-one] | 318 |
| O=C1CO[C@H]2CCN(C(=O)N3CC(C#Cc4ccc(Cl)s4)C3)C[C@H]2N1 [Example 187, (4aR,8aS)-6-[3-[2-(5-Chlorothiophen-2-yl)ethynyl]azetidine-1-carbonyl]-4,4a,5,7,8,8a-hexahydropyrido[4,3-b][1,4]oxazin-3-one] | 18 |
| O=C1CO[C@H]2CCN(C(=O)N3CC(C[S+]([O-])c4ccc(C(F)(F)F)cc4Cl)C3)C[C@H]2N1 (single isomer, unassigned) [Example 154] | 307 |
| O=C1CO[C@H]2CCN(C(=O)N3CC(C#Cc4c(F)cc(C(F)(F)F)cc4Cl)C3)C[C@H]2N1 [Example 189, (4aR,8aS)-6-[3-[2-[2-Chloro-6-fluoro-4-(trifluoromethyl)phenyl]ethynyl]azetidine-1-carbonyl]-4,4a,5,7,8,8a-hexahydropyrido[4,3-b][1,4]oxazin-3-one] | 1 |
| COCc1ccccc1C#CC1CN(C(=O)N2CC[C@@H]3OCC(=O)N[C@@H]3C2)C1 [Example 191, (4aR,8aS)-6-[3-[2-[2-(Methoxymethyl)phenyl]ethynyl]azetidine-1-carbonyl]-4,4a,5,7,8,8a-hexahydropyrido[4,3-b][1,4]oxazin-3-one] | 81 |
| CN(c1ccc(C(F)(F)F)cc1)C1CN(C(=O)N2CC[C@@H]3OCC(=O)N[C@@H]3C2)C1 (racemic) [Example 137, rac-(4aR,8aS)-6-[3-[N-methyl-4-(trifluoromethyl)anilino]azetidine-1-carbonyl]-4,4a,5,7,8,8a-hexahydropyrido[4,3-b][1,4]oxazin-3-one] | 1100 |
| O=C1CO[C@H]2CCN(C(=O)N3CCC(O)(C#Cc4ccccc4Cl)CC3)C[C@H]2N1 [Example 132, (+)-(4aR,8aS)-6-[4-[2-(2-Chlorophenyl)ethynyl]-4-hydroxypiperidine-1-carbonyl]-4,4a,5,7,8,8a-hexahydropyrido[4,3-b][1,4]oxazin-3-one] | 889 |
| O=C1CO[C@H]2CCN(C(=O)N3CC(C#Cc4ccc(C(F)(F)F)cc4)C3)C[C@H]2N1 [Example 167, (4aR,8aS)-6-[3-[2-[4-(Trifluoromethyl)phenyl]ethynyl]azetidine-1-carbonyl]-4,4a,5,7,8,8a-hexahydropyrido[4,3-b][1,4]oxazin-3-one] | 10 |
| O=C1CO[C@H]2CCN(C(=O)N3CC(C#Cc4ccc(C5CC5)cc4)C3)C[C@H]2N1 [Example 179, (4aR,8aS)-6-[3-[2-(4-Cyclopropylphenyl)ethynyl]azetidine-1-carbonyl]-4,4a,5,7,8,8a-hexahydropyrido[4,3-b][1,4]oxazin-3-one] | 6 |
| O=C1CO[C@H]2CCN(C(=O)N3CC(NC(=O)c4ccc(F)cc4Cl)C3)C[C@H]2N1 [Example 78, 2-chloro-4-fluoro-N-(1-((4aR,8aS)-3-oxooctahydro-2H-pyrido[4,3-b][1,4]oxazine-6-carbonyl)azetidin-3-yl)benzamide] | 4600 |
| O=C1CO[C@H]2CCN(C(=O)N3CC(C#Cc4cccc(Cl)c4)C3)C[C@H]2N1 [Example 165, (4aR,8aS)-6-[3-[2-(3-Chlorophenyl)ethynyl]azetidine-1-carbonyl]-4,4a,5,7,8,8a-hexahydropyrido[4,3-b][1,4]oxazin-3-one] | 8 |
| O=C1CO[C@H]2CCN(C(=O)N3CC([S+]([O-])c4ccc(C(F)(F)F)cc4Cl)C3)C[C@H]2N1 (single isomer, unassigned) [Example 147] | 12500 |
